The source of these data is PubChem BioAssay (NCI).

Some test systems named below: A549 NSCLC; BT-549 breast; HCT-15 colon; K-562 leukemia; OVCAR-8 ovarian; SF-295 CNS; SK-MEL-2 melanoma; SNB-19 CNS.
Assay in all cases: NCI anticancer screen, dose series, 48 h

SMILES strings stand for the structures. “And” between values parts separate entries of the source, which are not always exact repeats. Identical values can stand only once.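 Interpolation was linear, between the two tested concentrations surrounding the appropriate level; five concentrations were tested over 48 hours in 96-well plates. GI50 is the concentration that inhibits growth by half. Definition used: TGI = concentration required for complete inhibition of growth.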 Where only a bound is given, the exact number is not on record here.

Take `Cc1cccc(-c2nn3c(c2-c2ccnc4ccc(C(N)=O)cc24)CCC3)n1`: the GI50 in the assay with A549 NSCLC, with BT-549 breast, in the assay with HCT-15 colon, in the assay with K-562 leukemia, in the assay on OVCAR-8 ovarian and with SF-295 CNS was greater than 100 µM throughout. The GI50 in the assay with SK-MEL-2 melanoma and in the assay with SNB-19 CNS was greater than 100 µM each time. The TGI in the assay with A549 NSCLC, in the assay with BT-549 breast, in the assay with HCT-15 colon, with K-562 leukemia, with OVCAR-8 ovarian and in the assay on SF-295 CNS was greater than 100 µM each time. Also, the TGI in the assay with SK-MEL-2 melanoma and with SNB-19 CNS was greater than 100 µM in each case.

In the case of `COc1c2c3ccccc3nc-2n(C)c2ccccc12`, the GI50 is 14.3 µM in the assay on A549 NSCLC; 18.8 µM in the assay on BT-549 breast; 5.29 µM in the assay on HCT-15 colon; 11.5 µM in the assay on K-562 leukemia; 25.7 µM in the assay with OVCAR-8 ovarian; 20.8 µM with SF-295 CNS. For the same molecule, the GI50 in the assay with SK-MEL-2 melanoma was 36.8 µM; with SNB-19 CNS, 17.1 µM. In addition, the TGI in the assay with A549 NSCLC is greater than 100 µM; with BT-549 breast, 43.5 µM; in the assay with HCT-15 colon, 50.6 µM; in the assay with K-562 leukemia it was greater than 100 µM; with OVCAR-8 ovarian, greater than 100 µM; in the assay with SF-295 CNS, greater than 100 µM. The TGI with SK-MEL-2 melanoma and in the assay with SNB-19 CNS was greater than 100 µM each time.

On to `CCc1c2c(nc3cc4c(c(N)c13)OCO4)-c1cc3c(c(=O)n1C2)COC(=O)[C@]3(O)CC`, for which the GI50 was less than 0.001 µM with A549 NSCLC; less than 0.001 µM with BT-549 breast; 0.277 µM and 0.178 µM with HCT-15 colon; 0.00135 µM with K-562 leukemia; less than 0.001 µM with SF-295 CNS; less than 0.001 µM in the assay on SNB-19 CNS. Moreover, the TGI was 1.01 µM and 1.47 µM in the assay on A549 NSCLC; 4.39 µM with BT-549 breast; greater than 100 µM in the assay with HCT-15 colon; greater than 100 µM in the assay on K-562 leukemia; 14.7 µM with OVCAR-8 ovarian; 0.0424 µM in the assay on SK-MEL-2 melanoma. This molecule also had a TGI with SNB-19 CNS of 0.183 µM.

Take `CCN1C(=O)N(CC)C2C1NN=c1s/c(=C\c3ccccc3F)c(=O)n12` (stereo unspecified): the GI50 was 0.0419 µM in the assay with A549 NSCLC; 0.0358 µM with BT-549 breast; 0.0316 µM with HCT-15 colon; 0.0301 µM in the assay with K-562 leukemia; 0.0357 µM in the assay with OVCAR-8 ovarian; 0.0242 µM in the assay with SF-295 CNS. Besides, the GI50 with SK-MEL-2 melanoma and in the assay with SNB-19 CNS was 0.0489 µM each time. For the same molecule, the TGI with A549 NSCLC was greater than 100 µM; in the assay on BT-549 breast it was greater than 93.3 µM; in the assay with HCT-15 colon, greater than 100 µM; with K-562 leukemia, greater than 100 µM; with SF-295 CNS, greater than 49.8 µM; in the assay with SK-MEL-2 melanoma, greater than 38.9 µM. This molecule yielded a TGI in the assay with SNB-19 CNS greater than 100 µM.

On to `COc1ccc(CCN2CCCN3C2=Nc2ccccc2S3(=O)=O)cc1`, for which the GI50 in the assay with A549 NSCLC was 0.8 µM; in the assay on BT-549 breast, 0.923 µM; in the assay on HCT-15 colon it was 0.342 µM; in the assay on K-562 leukemia it was 0.196 µM; with OVCAR-8 ovarian it was 0.802 µM; in the assay with SF-295 CNS, 0.389 µM. The GI50 with SK-MEL-2 melanoma was 0.521 µM; in the assay with SNB-19 CNS, 0.882 µM. The TGI was greater than 100 µM in the assay on A549 NSCLC; 92.4 µM in the assay on BT-549 breast; greater than 100 µM in the assay with HCT-15 colon; greater than 100 µM in the assay on K-562 leukemia; greater than 100 µM in the assay on OVCAR-8 ovarian; greater than 100 µM in the assay on SF-295 CNS. Besides, the TGI in the assay with SK-MEL-2 melanoma and in the assay on SNB-19 CNS was greater than 100 µM throughout.

Turning to `O=c1[nH]cc(/C=N\Nc2ccccc2)c(=O)[nH]1`, the TGI with A549 NSCLC, in the assay on BT-549 breast, with HCT-15 colon, with K-562 leukemia, with OVCAR-8 ovarian and in the assay on SF-295 CNS was greater than 100 µM in each case. Also, the TGI with SK-MEL-2 melanoma and with SNB-19 CNS was greater than 100 µM each time.

On to `N=C(N)/N=C(\N)c1c(-c2cc(O)ccc2O)nc2sccn12`, for which the GI50 in the assay with A549 NSCLC was greater than 100 µM; with BT-549 breast, 30.4 µM; in the assay on HCT-15 colon, 26 µM; with K-562 leukemia, 33 µM; in the assay with OVCAR-8 ovarian it was 59.9 µM; in the assay on SF-295 CNS, greater than 100 µM. Besides, the GI50 in the assay on SK-MEL-2 melanoma is 44.9 µM; in the assay on SNB-19 CNS, greater than 100 µM. In addition, the TGI with A549 NSCLC was greater than 100 µM; with BT-549 breast, 84.3 µM; with HCT-15 colon, 74.8 µM; in the assay with K-562 leukemia it was greater than 100 µM; with OVCAR-8 ovarian, greater than 100 µM; in the assay on SF-295 CNS, greater than 100 µM. In addition, the TGI with SK-MEL-2 melanoma and with SNB-19 CNS was greater than 100 µM throughout.

On to `NC(=NCCCC1(c2ccccc2)CCCC1)Nc1ccc(Cl)cc1`, for which the GI50 in the assay on A549 NSCLC is 1.89 µM; in the assay with BT-549 breast it was 1.74 µM; in the assay with HCT-15 colon it was 1.75 µM; in the assay on K-562 leukemia, 1.55 µM; with OVCAR-8 ovarian, 1.9 µM; in the assay on SF-295 CNS, 1.62 µM. For the same molecule, the GI50 in the assay on SK-MEL-2 melanoma was 1.95 µM; with SNB-19 CNS, 1.81 µM. The TGI amounted to 3.61 µM in the assay on A549 NSCLC; 3.27 µM with BT-549 breast; 3.29 µM in the assay on HCT-15 colon; 4.45 µM in the assay on K-562 leukemia; 3.8 µM with OVCAR-8 ovarian; 3.06 µM in the assay with SF-295 CNS. Besides, the figures for the TGI in the assay with SK-MEL-2 melanoma and in the assay on SNB-19 CNS were 3.52 µM and 3.98 µM, respectively.

Regarding `O=C(NCCc1ccccc1)C(c1ccccc1)(c1ccccc1)c1ccccc1`, the GI50 was 1.75 µM with A549 NSCLC; 5.99 µM with BT-549 breast; 5.91 µM in the assay with HCT-15 colon; 44.9 µM in the assay on K-562 leukemia; 1.62 µM with OVCAR-8 ovarian; 2.51 µM in the assay on SF-295 CNS. The GI50 in the assay with SK-MEL-2 melanoma was 7.04 µM; with SNB-19 CNS, 7.27 µM. Also, the TGI is 5.59 µM with A549 NSCLC; 44.9 µM in the assay on BT-549 breast; greater than 100 µM in the assay on HCT-15 colon; greater than 100 µM in the assay with K-562 leukemia; 4.44 µM in the assay with OVCAR-8 ovarian; 9.36 µM in the assay with SF-295 CNS. Also, the TGI in the assay with SK-MEL-2 melanoma was 29.8 µM; with SNB-19 CNS, greater than 100 µM.

Take `CNC1C(O)C(OC2C(N)CC(N)C(OC3OC(CN)=CCC3N)C2O)OCC1(C)O` (stereo unspecified): the TGI in the assay on A549 NSCLC, in the assay on BT-549 breast, in the assay on HCT-15 colon, in the assay with K-562 leukemia, in the assay on OVCAR-8 ovarian and in the assay with SF-295 CNS was greater than 100 µM in each case. Besides, the TGI in the assay with SK-MEL-2 melanoma and in the assay with SNB-19 CNS was greater than 100 µM in each case.

Take `NC(=O)/C(=C\c1ccncc1)c1cccc2ccccc12`: the TGI with A549 NSCLC, in the assay on BT-549 breast, in the assay with HCT-15 colon, in the assay on K-562 leukemia, in the assay with OVCAR-8 ovarian and in the assay on SF-295 CNS was greater than 100 µM each time. The TGI in the assay with SK-MEL-2 melanoma and in the assay on SNB-19 CNS was greater than 100 µM each time.

`CCCCCCCCCCCCNC(=O)[C@H]1CSC(c2cc3ccccc3s2)N1` (stereo partly specified): the GI50 in the assay on A549 NSCLC is 6.01 µM; in the assay on BT-549 breast, 1.01 µM; in the assay on HCT-15 colon, 3.69 µM; with K-562 leukemia it was 0.717 µM; in the assay with OVCAR-8 ovarian it was 2.23 µM; with SF-295 CNS it was 3.52 µM. The GI50 in the assay on SK-MEL-2 melanoma is 1.96 µM; with SNB-19 CNS, 5.47 µM. The TGI with A549 NSCLC came to 11.3 µM; in the assay on BT-549 breast, 4.11 µM; with HCT-15 colon it was 8.17 µM; with K-562 leukemia it was 1.62 µM; in the assay on OVCAR-8 ovarian, 8.53 µM; in the assay with SF-295 CNS it was 8.33 µM. Further, the TGI was determined as 6.49 µM in the assay on SK-MEL-2 melanoma and 11.2 µM in the assay on SNB-19 CNS.

Regarding `COC(=O)[C@@]1(Cc2ccccc2)[C@H]2c3cc(C(=O)N4CCCC4)n(Cc4ccc(OC)c(OC)c4)c3C[C@H]2CN1C(=O)c1ccccc1`, the GI50 in the assay on A549 NSCLC is 13.7 µM; in the assay with BT-549 breast it was 8.46 µM; in the assay with HCT-15 colon, 7.77 µM; in the assay with K-562 leukemia, 9.27 µM; with OVCAR-8 ovarian, 11.8 µM; in the assay on SF-295 CNS it was 12.7 µM. The figures for the GI50 in the assay on SK-MEL-2 melanoma and with SNB-19 CNS were 8.76 µM and 17.4 µM, respectively. Besides, the TGI was determined as 46.2 µM with A549 NSCLC; 16.1 µM in the assay on BT-549 breast; 14.5 µM in the assay with HCT-15 colon; 37.3 µM in the assay with K-562 leukemia; 34.1 µM in the assay with OVCAR-8 ovarian; 34.4 µM in the assay on SF-295 CNS. In addition, the figures for the TGI in the assay with SK-MEL-2 melanoma and in the assay on SNB-19 CNS were 18.7 µM and greater than 50 µM, respectively.

With `CN1CCC(CNc2ccc3ncc(-c4cccc(OC(F)(F)F)c4)n3n2)CC1`, the GI50 in the assay with A549 NSCLC was 1.85 µM and 2.3 µM; with BT-549 breast it was 2.45 µM and 4.35 µM; in the assay on HCT-15 colon, 2 µM and 2.45 µM; in the assay with K-562 leukemia it was 1.65 µM and 1.7 µM; in the assay on OVCAR-8 ovarian it was 2.46 µM and 2.89 µM; with SF-295 CNS, 1.67 µM and 1.55 µM. Also, the GI50 in the assay on SK-MEL-2 melanoma is 1.64 µM and 1.76 µM; in the assay with SNB-19 CNS, 4.06 µM and 2.95 µM. Further, the TGI in the assay on A549 NSCLC is 4.97 µM and > 10 µM; in the assay with BT-549 breast it was 10.9 µM and > 10 µM; in the assay on HCT-15 colon it was 4.78 µM and > 10 µM; in the assay with K-562 leukemia it was 4.95 µM and 6.01 µM; with OVCAR-8 ovarian it was 8.2 µM and > 10 µM; in the assay on SF-295 CNS, 3.48 µM and 3.87 µM. The TGI in the assay with SK-MEL-2 melanoma was 3.25 µM and 4.34 µM; with SNB-19 CNS, 16.5 µM and > 10 µM.

Turning to `O=C(CCCCCCCn1cc(-c2cccnc2)nn1)Nc1ccccc1-c1ccccc1`, the GI50 is 1.15 µM in the assay with A549 NSCLC; 1.44 µM with BT-549 breast; 0.231 µM in the assay on HCT-15 colon; 0.0633 µM with K-562 leukemia; 0.0437 µM with OVCAR-8 ovarian; 0.403 µM with SF-295 CNS. Besides, the GI50 is 5.52 µM in the assay on SK-MEL-2 melanoma and 1.74 µM in the assay on SNB-19 CNS. Moreover, the TGI with A549 NSCLC was greater than 100 µM; in the assay on BT-549 breast, 25.6 µM; with HCT-15 colon, greater than 100 µM; in the assay on K-562 leukemia it was 44.7 µM; in the assay on OVCAR-8 ovarian, 27.9 µM; in the assay with SK-MEL-2 melanoma it was 38.1 µM. Moreover, the TGI with SNB-19 CNS is greater than 100 µM.
